Structures can show the parent of a compound that is named as a salt. Where two headings read alike, the source gives them in different places.
How the values were obtained:
human NTCP [1] = target: T1, human NTCP (Homo sapiens, UniProt Q14973); assay: Screening fluorescent competitive Myrcludex B-FITC binding assay (96-well, 10 µM drug)
T1 sequence (Q14973 1-349): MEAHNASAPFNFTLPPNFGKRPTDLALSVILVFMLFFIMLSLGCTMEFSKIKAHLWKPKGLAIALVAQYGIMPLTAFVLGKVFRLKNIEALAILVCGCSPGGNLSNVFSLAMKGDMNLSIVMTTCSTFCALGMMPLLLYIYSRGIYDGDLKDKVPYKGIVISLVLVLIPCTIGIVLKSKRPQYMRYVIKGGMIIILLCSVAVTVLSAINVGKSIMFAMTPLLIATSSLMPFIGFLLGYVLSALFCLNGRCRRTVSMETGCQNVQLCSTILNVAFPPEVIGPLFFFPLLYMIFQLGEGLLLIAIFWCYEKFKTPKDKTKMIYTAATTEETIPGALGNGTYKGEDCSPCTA

human NTCP [2] = target: T1, human NTCP; assay: Screening taurocholate uptake assay (96-well, [14C]taurocholate, 10 µM drug)
[3] = Prestwick library screen, 10 µM drug, B-score of Myrcludex B-FITC binding
[4] = Prestwick library screen, 10 µM drug, B-score of taurocholate uptake
[5] = combined ranking from functional and binding assay B-scores
[6] = screen, 10 µM drug, Myrcludex B-FITC binding
[7] = combined ranking from functional and binding screening assays
[8] = screen, 10 µM drug, taurocholate uptake
[9] = Prestwick library screen, Myrcludex B-FITC binding, 10 µM drug
[10] = Prestwick library screen, taurocholate uptake, 10 µM drug
[11] = ranking score beside the functional and binding assay B-scores of the screen

Structure (SMILES)	B-score binding assay (human NTCP [1]; [6])	Ranking score (human NTCP [2]; [7])	B-score functional assay (human NTCP [2]; [8])	B-score binding assay (human NTCP [1]; [9])	B-score functional assay (human NTCP [2]; [10])	Ranking score (human NTCP [2]; [11])	other results
Cc1onc(-c2c(F)cccc2Cl)c1C(=O)N[C@@H]1C(=O)N2[C@@H]1SC(C)(C)[C@@H]2C(=O)O [Flucloxacillin sodium]							B-score binding assay (human NTCP [1]; [3]): 1.029; B-score functional assay (human NTCP [2]; [4]): 0.761; Ranking score (human NTCP [2]; [5]): 1024.7
Nc1[nH]c(=O)ncc1F [Flucytosine]	0.063	352.224	-1.554				
Nc1nc(F)nc2c1ncn2[C@@H]1O[C@H](CO)[C@@H](O)[C@@H]1O [Fludarabine]				-0.02	1.199	822.35	
CC(=O)OCC(=O)[C@@]1(O)CC[C@H]2[C@@H]3CCC4=CC(=O)CC[C@]4(C)[C@@]3(F)[C@@H](O)C[C@@]21C [Fludrocortisone acetate]	-0.826	430.869	0.011				
CC1CCc2cc(F)cc3c(=O)c(C(=O)O)cn1c23 (stereo not drawn) [Flumequine]							B-score binding assay (human NTCP [1]; [3]): -0.028; B-score functional assay (human NTCP [2]; [4]): 2.117; Ranking score (human NTCP [2]; [5]): 855.599
Fc1ccc(C(c2ccc(F)cc2)N2CCN(C/C=C/c3ccccc3)CC2)cc1 [Flunarizine dihydrochloride]				0.001	0.875	816.419	
CC1(C)O[C@@H]2C[C@H]3[C@@H]4C[C@H](F)C5=CC(=O)C=C[C@]5(C)[C@H]4[C@@H](O)C[C@]3(C)[C@]2(C(=O)CO)O1 [Flunisolide]				0.284	0.152	805.548	
CC1(C)O[C@@H]2C[C@H]3[C@@H]4C[C@H](F)C5=CC(=O)C=C[C@]5(C)[C@@]4(F)[C@@H](O)C[C@]3(C)[C@]2(C(=O)CO)O1 [Fluocinolone acetonide]				-0.033	0.621	752.533	
CC1(C)O[C@@H]2C[C@H]3[C@@H]4C[C@H](F)C5=CC(=O)CC[C@]5(C)[C@H]4[C@@H](O)C[C@]3(C)[C@]2(C(=O)CO)O1 [Flurandrenolide]	-0.083	407.676	-0.782				
CC(C)C(=O)Nc1ccc([N+](=O)[O-])c(C(F)(F)F)c1 [Flutamide]	0.039	383.15	-1.233				
CCC(=O)O[C@]1(C(=O)SCF)[C@H](C)C[C@H]2[C@@H]3C[C@H](F)C4=CC(=O)C=C[C@]4(C)[C@@]3(F)[C@@H](O)C[C@@]21C [Fluticasone propionate]				0.947	0.021	830.535	
Nc1nc(=O)c2nc(CNc3ccc(C(=O)N[C@@H](CCC(=O)O)C(=O)O)cc3)cnc2[nH]1 [Folic acid]	-0.117	436.211	-0.57				
Nc1nc(=O)c2c([nH]1)NCC(CNc1ccc(C(=O)N[C@@H](CCC(=O)[O-])C(=O)[O-])cc1)N2C=O.[Ca+2] (stereo partly drawn) [Folinic acid calcium salt]				0.117	0.369	806.918	
Cc1cn[nH]c1 [Fomepizole]				-0.028	0.928	795.707	
C[C@]12CCC(=O)C(O)=C1CC[C@@H]1[C@@H]2CC[C@]2(C)C(=O)CC[C@@H]12 [Formestane]							B-score binding assay (human NTCP [1]): -0.147; B-score functional assay (human NTCP [2]): -0.613; Ranking score (human NTCP [2]): 420.899
COc1ccc(C[C@@H](C)NC[C@H](O)c2ccc(O)c(NC=O)c2)cc1.COc1ccc(C[C@@H](C)NC[C@H](O)c2ccc(O)c(NC=O)c2)cc1.O=C(O)/C=C/C(=O)O [Formoterol fumarate]				-0.165	1.513	764.904	
O=C(O)c1ccccc1OP(=O)(O)O [Fosfosal]	-0.072	393.853	-0.869				
CCC(=O)O[C@@H](O[P@](=O)(CCCCc1ccccc1)CC(=O)N1C[C@H](C2CCCCC2)C[C@H]1C(=O)O)C(C)C [Fosinopril]				-0.621	3.318	655.924	
C[C@]12CC[C@@H]3c4ccc(O)cc4C[C@@H](CCCCCCCCC[S+]([O-])CCCC(F)(F)C(F)(F)F)[C@H]3[C@@H]1CC[C@@H]2O (stereo partly drawn) [Fulvestrant]				-0.303	1.208	701.076	
C/C(=C(/CCO)SSCC1CCCO1)N(C=O)Cc1cnc(C)nc1N.Cl (stereo not drawn) [Fursultiamine Hydrochloride]							B-score binding assay (human NTCP [1]): 0.087; B-score functional assay (human NTCP [2]): 1.116; Ranking score (human NTCP [2]): 897.109
Cl.Cl.Fc1ccc(C(OCCN2CCN(CCCc3ccccc3)CC2)c2ccc(F)cc2)cc1 [GBR 12909 dihydrochloride]	-0.172	416.575	-0.602				

Structure (SMILES)	B-score binding assay (human NTCP [1]; [6])	Ranking score (human NTCP [2]; [7])	B-score functional assay (human NTCP [2]; [8])	B-score binding assay (human NTCP [1]; [9])	B-score functional assay (human NTCP [2]; [10])	Ranking score (human NTCP [2]; [11])	other results
NCC1(CC(=O)O)CCCCC1 [Gabapentin]	0.068	428.131	-0.982				
COc1ccc2c3c1O[C@H]1C[C@@H](O)C=C[C@@]31CCN(C)C2 [Galanthamine hydrobromide]				0.486	0.072	808.114	
Nc1nc(O)c2ncn(COC(CO)CO)c2n1 [Ganciclovir]	0.144	278.51	-2.412				
Nc1ccn([C@@H]2O[C@H](CO)[C@@H](O)C2(F)F)c(=O)n1 [Gemcitabine]				0.165	0.015	717.496	
Cc1ccc(C)c(OCCCC(C)(C)C(=O)O)c1 [Gemfibrozil]	-2.286	289.348	0.85				
C#C[C@]1(O)CC[C@H]2[C@@H]3CCC4=CC(=O)CCC4=C3C=C[C@@]21CC [Gestrinone]	-0.596	385.482	-0.358				
Cl.O=C(OCC(O)CO)c1ccccc1Nc1ccnc2cc(Cl)ccc12 (stereo not drawn) [Glafenine hydrochloride]							B-score binding assay (human NTCP [1]; [3]): 3.077; B-score functional assay (human NTCP [2]; [4]): 0.341; Ranking score (human NTCP [2]; [5]): 1037.91
CCC1=C(C)CN(C(=O)NCCc2ccc(S(=O)(=O)NC(=O)N[C@H]3CC[C@H](C)CC3)cc2)C1=O [Glimepiride]	0.412	350.338	-1.888				
Cc1cnc(C(=O)NCCc2ccc(S(=O)(=O)NC(=O)NC3CCCCC3)cc2)cn1 [Glipizide]	0.997	412.592	-1.639				
COc1ccc2c(c1)C(=O)N(CCc1ccc(S(=O)(=O)NC(=O)NC3CCCCC3)cc1)C(=O)C2(C)C [Gliquidone]	1.024	336.107	-2.316				
CCC1(c2ccc(N)cc2)CCC(=O)NC1=O (stereo not drawn) [Glutethimide, para-amino]				-0.055	0.113	663.514	
C[N+]1(C)CCC(OC(=O)C(O)(c2ccccc2)C2CCCC2)C1 (stereo not drawn) [Glycopyrrolate]				0.143	0.403	820.625	
CN1C2CCCC1CC(NC(=O)c1nn(C)c3ccccc13)C2 (stereo not drawn) [Granisetron]				-0.067	0.526	726.756	
COc1ccccc1O [Guaiacol]				0.94	-0.032	782.911	
N=C(N)NCC1COC2(CCCCC2)O1.N=C(N)NCC1COC2(CCCCC2)O1.O=S(=O)(O)O (stereo not drawn) [Guanadrel sulfate]	0.27	326.821	-2.033				
CCCCN(CCCC)CCC(O)c1cc2c(Cl)cc(Cl)cc2c2cc(C(F)(F)F)ccc12 (stereo not drawn) [Halofantrine hydrochloride]	-1.143	393.07	0.058				
Oc1c(Cl)cc(Cl)c(Cl)c1Cc1c(O)c(Cl)cc(Cl)c1Cl [Hexachlorophene]							B-score binding assay (human NTCP [1]): 1.48; B-score functional assay (human NTCP [2]): -8.47; Ranking score (human NTCP [2]): 82.4136
C[N+](C)(C)CCCCCC[N+](C)(C)C.O.O.[Br-].[Br-] [Hexamethonium dibromide dihydrate]				0.191	-0.02	696.207	
CC(CNC1CCCCC1)OC(=O)c1ccccc1 (stereo not drawn) [Hexylcaine hydrochloride]	-1.021	435.325	0.196				
CN1CCCN(C(c2ccccc2)c2ccc(Cl)cc2)CC1.Cl.Cl (stereo not drawn) [Homochlorcyclizine dihydrochloride]							B-score binding assay (human NTCP [1]; [3]): 1.404; B-score functional assay (human NTCP [2]; [4]): 0.737; Ranking score (human NTCP [2]; [5]): 1053.65
CC1CC(OC(=O)c2ccccc2O)CC(C)(C)C1 (stereo not drawn) [Homosalate]				0.177	0.284	811.615	

— paper PMC5681660, “Reduced hepatitis B and D viral entry using clinically applied drugs as novel inhibitors of the bile acid transporter NTCP” (Scientific Reports, 2017)
